The source made the active and inactive calls. The rule behind the calls is not given here.
Assays:
[1] = Cytotoxicity against MDCK cells; assay type: toxicity, cell-based, Canis lupus familiaris; details: dog
[2] = system: Influenza A virus; assay: Antiviral activity against influenza A virus H1N1 infected in MDCK cells; assay type: functional, organism-based
[3] = system: Influenza A virus; assay: Antiviral activity against influenza A virus H1N1 A/Puerto Rico/8/1934 infected in Kunming mouse assessed as survival rate at 1.67 mg/kg, po administered with compound twice daily for 7 days followed by viral infection on day 2 and measured for 14 days relative to control; assay type: functional; details: H1N1 A/Puerto Rico/8/1934, 336 h, time 14 day
[4] = system: Influenza A virus; assay: Antiviral activity against Influenza A virus H3N2 subtype; assay type: functional, organism-based
[5] = Toxicity in Kunming mouse infected with influenza A virus H1N1 A/Puerto Rico/8/1934 assessed as reduction in body weight at 5 to 15 mg/kg, po administered with compound twice daily for 7 days followed by viral infection on day 2 and measured for 14 days relative to oseltamivir; assay type: organism-based; details: in vivo, 336 h, dose 5-15 mg/kg, time 14 day
[6] = system: Infectious bronchitis virus; assay: Antiviral activity against Infectious bronchitis virus; assay type: functional, organism-based
[7] = system: Influenza A virus; assay: Antiviral activity against influenza A virus H1N1 A/Puerto Rico/8/1934 infected in Kunming mouse assessed as survival rate at 5 to 15 mg/kg, po administered with compound twice daily for 7 days followed by viral infection on day 2 and measured for 14 days relative to control; assay type: functional; details: dose 5-15 mg/kg, time 14 day
[8] = Selectivity index, ratio of CC50 for MDCK cells to IC50 for influenza A virus infected in MDCK cells; assay type: toxicity, cell-based; details: dog, read-out: Ratio CC50/IC50

| SMILES | CC50 [1] [nM] | IC50 [2] [nM] | other results |
| --- | --- | --- | --- |
| CC(=O)Nc1ccc2oc(-c3ccnc(C(=O)N4CCN(C(c5ccc(F)cc5)c5nnn(C(C)C)n5)CC4)c3)nc2c1 (configuration not stated) | > 50000 | 220 |  |
| CC(=O)Nc1ccc2oc(-c3ccnc(C(=O)N4CCN(C(c5ccccc5)c5nnn(C(C)C)n5)CC4)c3)nc2c1 (configuration not stated) | > 50000 | 150 |  |
| CCC(CC)C(=O)Nc1ccc2oc(-c3ccnc(C(=O)N4CCN(C(c5ccc(F)cc5)c5nnn(C)n5)CC4)c3)nc2c1 (configuration not stated) | 28600 | 360 |  |
| CC(=O)Nc1ccc2oc(-c3ccnc(C(=O)N4CCN(C(c5ccc(F)cc5)c5nnn(CC6CCCCC6)n5)CC4)c3)nc2c1 (configuration not stated) | 38500 | 360 |  |
| CC(=O)Nc1ccc2oc(-c3ccnc(C(=O)N4CCN(C(c5ccc(F)cc5)c5nnn(C6CCOCC6)n5)CC4)c3)nc2c1 (configuration not stated) | > 50000 | 1080 |  |
| CC(=O)Nc1ccc2oc(-c3ccnc(C(=O)N4CCN(C(c5ccccc5)c5nnnn5C(C)C)CC4)c3)nc2c1 (configuration not stated) | > 50000 | > 15000 |  |
| Cn1nnc(C(c2ccc(F)cc2)N2CCN(C(=O)c3cc(-c4nc5cc(NC(=O)C(C)(C)C)ccc5o4)ccn3)CC2)n1 (configuration not stated) | 12800 | 350 |  |
| Cn1nnc(C(c2ccc(F)cc2)N2CCN(C(=O)c3cc(-c4nc5cc(NC(=O)C6CCCC6)ccc5o4)ccn3)CC2)n1 (configuration not stated) | 5140 | 630 |  |
| CC(=O)Nc1ccc2oc(-c3ccnc(C(=O)N4CCN([C@H](c5ccccc5)c5nnn(C)n5)CC4)c3)nc2c1 |  |  | survival at 1.67 mg/kg [3]: 80%; Activity [4]: inactive; Activity [5]: Non-Toxic; Activity [6]: inactive; Survival [7]: 100% |
| CCC(=O)Nc1ccc2oc(-c3ccnc(C(=O)N4CCN(C(c5ccc(F)cc5)c5nnn(C)n5)CC4)c3)nc2c1 (configuration not stated) | > 50000 | 450 |  |
| CC(=O)Nc1ccc2sc(-c3ccnc(C(=O)N4CCN(C(c5ccccc5)c5nnn(C(C)C)n5)CC4)c3)nc2c1 (configuration not stated) | > 50000 | 1430 |  |
| CC(=O)Nc1ccc2oc(-c3ccnc(C(=O)N4CCN(C(c5ccc(F)cc5)c5nnn(C6CCCC6)n5)CC4)c3)nc2c1 (configuration not stated) | > 50000 | 260 |  |
| CCC(CC)n1nnc([C@H](c2ccc(F)cc2)N2CCN(C(=O)c3cc(-c4nc5cc(NC(C)=O)ccc5o4)ccn3)CC2)n1 | > 100000 | 400 | selectivity ratio [8]: > 250 |
| CC(=O)Nc1ccc2oc(-c3ccnc(C(=O)N4CCN([C@@H](c5ccccc5)c5nnn(C(C)C)n5)CC4)c3)nc2c1 | > 100000 | 830 | selectivity ratio [8]: > 120 |
| CCCC(=O)Nc1ccc2oc(-c3ccnc(C(=O)N4CCN(C(c5ccc(F)cc5)c5nnn(C)n5)CC4)c3)nc2c1 (configuration not stated) | > 50000 | 630 |  |
| Cn1nnc(C(c2ccc(F)cc2)N2CCN(C(=O)c3cc(-c4nc5cc(NC(=O)C6CCCO6)ccc5o4)ccn3)CC2)n1 (configuration not stated) | > 50000 | 820 |  |
| COCCn1nnc(C(c2ccc(F)cc2)N2CCN(C(=O)c3cc(-c4nc5cc(NC(C)=O)ccc5o4)ccn3)CC2)n1 (configuration not stated) | > 50000 | 2470 |  |
| CC(=O)Nc1ccc2oc(-c3ccnc(C(=O)N4CCN([C@H](c5ccccc5)c5nnn(C(C)C)n5)CC4)c3)nc2c1 | > 100000 | 100 | selectivity ratio [8]: > 1000 |
| Cn1nnc(C(c2ccc(F)cc2)N2CCN(C(=O)c3cc(-c4nc5cc(NC(=O)c6ccccc6)ccc5o4)ccn3)CC2)n1 (configuration not stated) | 10700 | 630 |  |
| CCC(CC)n1nnc([C@@H](c2ccc(F)cc2)N2CCN(C(=O)c3cc(-c4nc5cc(NC(C)=O)ccc5o4)ccn3)CC2)n1 | > 100000 | 90 | selectivity ratio [8]: > 1110 |
| CC(=O)Nc1ccc2oc(-c3ccnc(C(=O)N4CCN([C@@H](c5ccc(F)cc5)c5nnn(C(C)C)n5)CC4)c3)nc2c1 | > 100000 | 2560 | selectivity ratio [8]: > 39 |
| CCC(CC)n1nnc(C(c2ccc(F)cc2)N2CCN(C(=O)c3cc(-c4nc5cc(NC(C)=O)ccc5o4)ccn3)CC2)n1 (configuration not stated) | > 50000 | 360 |  |

Source: ChEMBL document CHEMBL5385857, “Optimization and SAR research at the benzoxazole and tetrazole rings of JNJ4796 as new anti-influenza A virus agents, part 2” (Eur J Med Chem, 2023)
